Experimental data from EP4534088A1, “ARFOLITIXORIN FOR USE IN VITAMIN B6-ENHANCED, 5-FLUOROURACIL-BASED CHEMOTHERAPY OF CARCINOMAS” (priority 2023, dated 2025).

Columns and labels:
thymidylate synthase = target: T1, thymidylate synthase (Homo sapiens, UniProt P04818); assay: Modelle-001 Phase II clinical trial: TS inhibition in colorectal liver metastases (LC-MS/MS); assay type: in vivo; conditions: iv, i.v. bolus, with 500 mg/m2 5-FU, mean
T1 construct: from tissue; host or cells: colorectal liver metastasis tissue from human patients
T1 sequence (P04818 2-313 limits assumed): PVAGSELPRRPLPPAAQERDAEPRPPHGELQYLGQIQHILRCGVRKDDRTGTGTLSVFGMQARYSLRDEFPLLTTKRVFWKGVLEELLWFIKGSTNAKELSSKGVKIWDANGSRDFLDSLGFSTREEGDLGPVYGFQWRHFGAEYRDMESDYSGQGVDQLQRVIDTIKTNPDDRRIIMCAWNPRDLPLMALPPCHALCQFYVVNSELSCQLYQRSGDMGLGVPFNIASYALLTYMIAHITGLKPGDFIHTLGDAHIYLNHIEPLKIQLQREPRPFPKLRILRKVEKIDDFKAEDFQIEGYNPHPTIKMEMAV
Source text: The difference in a clinical setting in human patients between leucovorin and arfolitixorin has been analyzed by Taflin et al. in the Modelle 001 Phase 2 clinical study (TS-inhibition in Colorectal Liver Metastases Comparing Arfolitixorin and Calciumfolinate), the primary objective of which is to compare the TS-inhibtion capacity of the combination Arfolitixorin/5-FU in contrast to Calciumfolinate/5-FU in tumour, adjacent liver parenchyma and plasma in patients with liver metastases from colorectal cancer (Study Details | Modelle 001, TS-inhibition in Colorectal Liver Metastases Comparing Arfolitixorin and Calciumfolinate | ClinicalTrials.gov) (Taflin 2023).
(§1) The effectiveness of arfolitixorin vs. leucovorin in Thymidylate Synthase inhibition and in achieving high levels of [6R] 5,10-methylenetetrahydrofolate in metastatic tissue was investigated in the Modelle-001 Phase II clinical trial named "A Single-blinded, Randomized Phase II study investigating the effects of two doses of Arfolitixorin compared to Calcium folinate together with 5-fluorouracil on thymidylate synthase in tumour and adjacent hepatic tissue for patients with liver metastases from colorectal cancer". Link: Study Details I Modelle 001, TS-inhibition in Colorectal Liver Metastases Comparing Arfolitixorin and Calciumfolinate I Clinical-Trials.gov.
(§2) Aim: The Modelle-001 trial was designed to explore how a single intravenous bolus injection of Arfo as compared to LV in the form of calcium folinate, together with 5-FU affects the inhibition of TS and, further, to investigate how different forms and doses of folates affect folate concentration and polyglutamation in metastatic liver tissue.
Patients and Methods: Thirty adult patients with biopsy-verified colorectal cancer and liver metastases indicated for surgical removal were included at two Swedish University Hospitals. Both synchronous and metachronous liver metastases were accepted and most patients had received preoperative chemotherapy. […] Folate levels and TS inhibition were determined by LC-MS/MS.

[1] = cited from earlier work
[2] = cited from earlier work; remark: listed apart in the source
[3] = Modelle-001 Phase II clinical trial: folate concentration and polyglutamation in metastatic liver tissue (LC-MS/MS); assay type: in vivo, human; conditions: compared to LV60; for ratio of poly/monoglutamated folates: after 5-FU administration
Source text: as §1, §2
Patients and Methods: Thirty adult patients with biopsy-verified colorectal cancer and liver metastases indicated for surgical removal were included at two Swedish University Hospitals. Both synchronous and metachronous liver metastases were accepted and most patients had received preoperative chemotherapy. The first six patients received a reduced 5-FU dosage (250 mg/m2), and an independent safety committee gave permission to escalate to full dosage. Twenty-four patients were randomized to receive 500 mg/m2 5-FU either in combination with 60 mg/m2 LV (LV60, n = 12), 30 mg/m2 Arfo (A30, n = 6) or 120 mg/m2 Arfo (A120, n = 6) as a bolus regimen (a slow i.v. injection for three minutes). Metastatic tissue was collected 60 minutes after folate administration, then 5-FU was given. After a 60-minute break, metastatic tissue was again collected. Folate levels and TS inhibition were determined by LC-MS/MS.

[4] = [6R]-MTHF levels after arfolitixorin versus comparable leucovorin treatment; assay type: in vivo; conditions: fold higher than leucovorin
Source text: Leucovorin and I-leucovorin, both currently approved for treatment of gastrointestinal and other cancers, need to be metabolically activated to [6R]-MTHF to potentiate the effect of 5-FU. This dependency on cellular activation provides a hurdle for reaching sufficient levels of the active [6R]-MTHF. […] Secondly, the enzymatic activation is genetically regulated^16,18, and is therefore associated with variability between individuals and conditions. Arfolitoxirin is believed to be efficacious in a larger proportion of patients with less inter- and intra-individual variability. These differences may potentially turn out to be of significant importance for increased clinical efficacy in 5-FU based cancer treatment.

solid tumors = assay: Phase I/IIa study ISO-CC-005: tumour response to arfolitixorin doublet regimens (ARFIRI/ARFOX); assay type: in vivo, human; conditions: 120 mg/m^2 arfolitixorin and 5-FU with either irinotecan or oxaliplatin (ARFIRI/ARFOX)
Description: Arfolitixorin has been in development for a number of years and has been studied in several clinical studies.
The completion of the study was announced in January 2020. In total, 105 patients were included in the study. […] These patients had been treated with the "doublet" regimens comprising 120 mg/m^2 arfolitixorin and 5-fluorouracil (5-FU) with either irinotecan or oxaliplatin (ARFIRI/ARFOX). Out of the 31 patients, 17 were treated with an ARFOX regimen.

[5] = tested on: advanced metastatic colorectal adenocarcinoma; conditions: FOLFIRINOX (± cetuximab) supplemented with pyridoxine in high doses, cited from earlier work

Which inhibition at 60 mg/m2 (thymidylate synthase; 60 mg/m2 Leucovorin (LV60)) does the source give for `Nc1nc2c(c(=O)[nH]1)N(C=O)C(CNc1ccc(C(=O)N[C@@H](CCC(=O)O)C(=O)O)cc1)CN2` (stereo partly shown) [Leucovorin, 5-formyl tetrahydrofolic acid, reference compound] here?
Its inhibition at 60 mg/m2 is 25.4%.

Which results are given for `Cc1ncc(CO)c(CO)c1O.Cl` [Pyridoxine hydrochloride]?
volume of water in which one gram dissolves [1]: 5 mL; stability in air ([2]; air): stable in air; stability to sunlight ([2]; sunlight): slowly affected by sunlight

With `Nc1nc2c(c(=O)[nH]1)N1CN(c3ccc(C(=O)N[C@@H](CCC(=O)O)C(=O)O)cc3)C[C@H]1CN2` [arfolitixorin, [6R]-5,10-methylenetetrahydrofolate] as the compound, how does the “ratio of poly/monoglutamated folates” value ([3]; 30 mg/m2 (A30), p = 0.045) read?
The value was “higher”.

And the “5,10-methylenetetrahydrofolate (CH2THF) concentrations in metastases” value (shortened to “5,10-methylenetetrahydrofolate”) ([3]; 30 mg/m2 (A30), after 5-FU treatment, p = 0.031)?
Its value is “higher”.

What about the “5,10-methylenetetrahydrofolate” value ([3]; 30 mg/m2 (A30), before 5-FU treatment, p = 0.037) of the same compound?
Its value is “higher”.

And the “ratio of poly/monoglutamated folates” value ([3]; 120 mg/m2 (A120), p = 0.0049)?
Its value is “higher”.

And the “5,10-methylenetetrahydrofolate” value ([3]; 120 mg/m2 (A120), after 5-FU treatment, p = 0.0023)?
The value was “higher”.

And the “5,10-methylenetetrahydrofolate” value ([3]; 120 mg/m2 (A120), before 5-FU treatment, p = 0.0003)?
The value was “higher”.

What about the “[6R]-MTHF levels relative to comparable treatment with leucovorin” value [4] of the same compound?
Its value is 3-4 times.

What about the inhibition at 30 mg/m2 (thymidylate synthase; 30 mg/m2 arfolitixorin (A30)) of the same compound?
Its inhibition at 30 mg/m2 is 54.2%.

And the inhibition at 120 mg/m2 (thymidylate synthase; 120 mg/m2 arfolitixorin (A120))?
Its inhibition at 120 mg/m2 is 83.8%.

And the “best overall response rate (ORR)” value (solid tumors)?
Its value is 55%.

With `Cc1ncc(CO)c(CO)c1O` [pyridoxine] as the compound, how does the “toxicity associated with the pyridoxine-modified protocols” value [5] read?
The value was “of the same magnitude as expected for the standard protocols”.

What about the Antitumor activity ([5]; five patients, no controls) of the same compound?
The Antitumor activity was “high for several patients”.
